Drawing on patent publication US6919457B2, “3-(imidazolyl)-2-aminopropanoic acids” (Pfizer, Inc., priority 2002, dated 2005), this text covers Ki and Selectivity for 5 compounds.

Experiment [1] has as its target T1, TAFIa (Homo sapiens, UniProt Q96IY4).
T1 sequence (Q96IY4 115-423): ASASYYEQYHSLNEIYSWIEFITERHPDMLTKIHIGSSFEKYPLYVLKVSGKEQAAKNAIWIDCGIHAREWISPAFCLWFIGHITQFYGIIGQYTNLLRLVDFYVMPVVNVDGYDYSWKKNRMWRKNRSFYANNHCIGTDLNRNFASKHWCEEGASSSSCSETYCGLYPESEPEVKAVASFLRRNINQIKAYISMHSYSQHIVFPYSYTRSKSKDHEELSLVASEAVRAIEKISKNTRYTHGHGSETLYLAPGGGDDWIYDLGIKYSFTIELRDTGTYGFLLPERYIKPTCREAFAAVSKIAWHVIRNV
Nature of the experiment: Assay for TAFIa inhibition (Ki determination, FAAL substrate hydrolysis). The format is biochemical. Conditions: calculated from IC50 using the Cheng-Prusoff equation, activated human TAFI, 24° C. The procedure: The compounds of the present invention may be tested using the following assay, which is based on that disclosed in Boffa et al., J. Biol. Chem. 1998, 273, 2127. The compounds are incubated with activated TAFI and a standard substrate for TAFIa, the rate of hydrolysis of the substrate is determined and compared to the rate of hydrolysis in the absence of the compounds, and the amount of inhibition expressed in terms of Ki.
Human TAFI (recombinant or purified) was activated by incubating 20 μl of stock solution (360 μg/ml) with 10 μl of human thrombin (10 NIH units/ml), 10 μl of rabbit thrombomodulin (30 μg/ml), 6 μl calcium chloride (50 mM) in 50 μL of 20 mM HEPES (N-[2-hydroxyethyl]piperazine-N-[2-ethanesulfonic acid]) buffer containing 150 mM sodium chloride and 0.01% TWEEN 80 (polyoxyethylene-sorbitan monooleate) pH 7.6 for 20 minutes at 22° C. At the end of the incubation period, thrombin was neutralised by the addition of 10 μL of PPACK (D-Phe-Pro-Arg chloromethyl ketone) (100 nM). The resulting TAFIa solution was stored on ice for 5 minutes and finally diluted with 175 μl of HEPES buffer.
ii) Ki Determination (TAFIa)
(§1) A number of different dilutions of the test compound in water were made up. To 20 μl of each dilution was added 150 μl of HEPES buffer and 10 μl of TAFIa, which was then pre-incubated for 15 minutes at 24° C. To each dilution was then added 20 μl furylacryloyl-alanyl-lysine (FAAL) at a standard concentration. Substrate turnover was measured by reading the absorbance of the reaction mixture at 330 nm every 15 seconds for 30 minutes. The reaction was performed at 24° C. and samples were mixed for 3 seconds prior to each absorbance reading.
(§2) A graph of % inhibition against test compound concentration was then plotted; from which was calculated the IC50 value. The Ki value was then calculated using the Cheng-Prusoff equation.
Two controls, positive and negative, were used to check the accuracy of the results in each case. For the first control, the assay was performed as above, but with 20 μl of water rather than a dilution of the test compound. […] For the second control, the assay was performed as above, but with an effective amount of a non specific carboxypeptidase inhibitor rather than a dilution of the test compound.

Experiment [2] concerns the target T2, human CPN (Homo sapiens, UniProt P15169).
T2 sequence (P15169 21-458): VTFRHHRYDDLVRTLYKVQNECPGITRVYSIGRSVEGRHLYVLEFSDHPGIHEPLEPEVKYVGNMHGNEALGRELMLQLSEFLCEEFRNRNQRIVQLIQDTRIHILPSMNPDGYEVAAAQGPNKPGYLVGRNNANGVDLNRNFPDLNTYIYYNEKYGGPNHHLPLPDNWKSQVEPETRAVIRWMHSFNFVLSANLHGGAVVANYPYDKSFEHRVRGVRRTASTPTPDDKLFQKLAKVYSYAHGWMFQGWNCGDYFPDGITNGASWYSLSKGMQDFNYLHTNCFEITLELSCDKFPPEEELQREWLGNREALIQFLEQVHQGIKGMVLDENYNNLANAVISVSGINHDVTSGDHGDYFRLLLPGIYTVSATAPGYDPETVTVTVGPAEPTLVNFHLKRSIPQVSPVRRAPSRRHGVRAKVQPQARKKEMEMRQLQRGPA
T2 sequence (P22792 22-545 partner): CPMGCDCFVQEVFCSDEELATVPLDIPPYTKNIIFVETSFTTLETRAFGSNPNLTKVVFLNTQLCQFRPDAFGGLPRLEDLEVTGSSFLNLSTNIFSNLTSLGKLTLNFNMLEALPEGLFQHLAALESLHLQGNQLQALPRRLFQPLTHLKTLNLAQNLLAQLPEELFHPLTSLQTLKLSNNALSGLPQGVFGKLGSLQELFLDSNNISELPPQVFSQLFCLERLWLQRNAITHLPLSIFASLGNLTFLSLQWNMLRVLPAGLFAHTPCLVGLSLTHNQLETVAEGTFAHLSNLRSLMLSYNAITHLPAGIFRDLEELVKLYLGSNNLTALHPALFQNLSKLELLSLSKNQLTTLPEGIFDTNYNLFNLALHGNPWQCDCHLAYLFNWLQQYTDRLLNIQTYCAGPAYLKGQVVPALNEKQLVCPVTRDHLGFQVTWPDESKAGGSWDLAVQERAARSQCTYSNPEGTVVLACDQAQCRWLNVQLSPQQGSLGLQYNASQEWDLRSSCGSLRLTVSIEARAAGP
Nature of the experiment: CPN Ki determination (TAFIa assay with human CPN substituted for TAFIa). The format is biochemical. Conditions: for Ki: human CPN substituted for TAFIa, calculated Ki; for Selectivity: selectivity for TAFIa over CPN, comparing Ki for CPN with Ki for TAFIa. The procedure: as §1, §2
The selectivity of the compounds of the present invention for TAFIa over CPN was determined by calculating the Ki of the compounds of the present invention for CPN, then comparing it to the Ki for TAFIa. The Ki was calculated using the assay for the calculation of TAFIa Ki, but substituting 10 μl of human CPN for 10 μl of TAFIa.

Broadly, the Ki is the dissociation constant of the complex between target and ligand, obtained from inhibition or displacement.

Where only a bound is given, the exact number is not on record here.

Regarding `N[C@H]1CCN([C@@H](Cc2c[nH]cn2)C(=O)O)C1` [Example 2, (+)-(2S)-2-[(3S)-3-Aminopyrrolidinyl]-3-(1H-imidazol-4-yl)propanoic Acid], the Ki in experiment [1] was 0.06 µM. For the compound `CCCn1cnc(C[C@@H](C(=O)O)N2CC[C@H](N)C2)c1` [Example 4, (+)-(2S)-2-[(3S)-3-Aminopyrrolidinyl]-3-(1-propyl-1H-imidazol-4-yl)propanoic Acid], the Ki is above 10 µM in experiment [2] and 0.022 µM in experiment [1]. In addition, in experiment [2], the Selectivity was above 450. The matching figures for `N[C@H]1CCN([C@@H](Cc2cn(CCC3CCCCC3)cn2)C(=O)O)C1` [Example 6, (+)-(2S)-2-[(3S)-3-Aminopyrrolidinyl]-3-[1-(2-cyclohexylethyl)-1H-imidazol-4-yl]propanoic Acid]: above 10 µM, 0.007 µM and above 1400. Take `N[C@H]1CCN([C@@H](Cc2cn(CCc3ccccc3)cn2)C(=O)O)C1` [Example 8, (+)-(2S)-2-[(3S)-3-Aminopyrrolidinyl]-3-[1-(2-phenylethyl)-1H-imidazol-4-yl]propanoic Acid]: in experiment [1], the inhibition constant (Ki) is 0.01 µM. For `N[C@H]1CCN([C@@H](Cc2cn(-c3ccccc3)cn2)C(=O)O)C1` [Example 9, (+)-(2S)-2-[(3S)-3-Aminopyrrolidinyl]-3-[1-phenyl-1H-imidazol-4-yl]propanoic Acid], the Ki in experiment [1] was 0.008 µM.
